Experimental data from paper PMC7002685, “Inhibition of vascular calcification by inositol phosphates derivatized with ethylene glycol oligomers” (Nature Communications, 2020).
“And” between values parts separate entries of the source, which are not always exact repeats. Identical values can stand only once. Like-named read-outs stand apart in the source and are kept apart here.

What was measured:
CPP2 = test: Competitive 18F-NaF binding assay on CPPs; parameters: species or system human; conditions: for IC50: CPP2 20 µg Ca/mL, 18F-NaF 1 nM, 1 h RT, read-out: IC50 (reduction of 18F binding to CPP)
Protocol: A ^18F-NaF-based competitive binding assay was developed to indirectly assess the inhibitor affinity (IC50) to CPPs. The uptake mechanism of ^18F-NaF, a marker of micro-calcification activity by chemisorption onto hydroxyapatite crystals, is contingent on the rapid exchange of hydroxyl (OH^−) groups present on the hydroxyapatite surface (Ca5(PO4)3(OH)) by ^18F^− to form fluoroapatite (Ca5(PO4)3^18F)[34],[54].
Triplicate aliquots of CPP2s (20 µg Ca/mL) in 100 μL assay buffer (100 mM HBS, pH 7.4 (RT)) were incubated for 1 h at RT in the presence of increasing concentrations of compounds in 50 μL Milli-Q water and ^18F-NaF (1 nM) in 50 μL assay buffer, resulting in a total incubation volume of 200 μL (^18F-NaF was prepared using a FASTlab synthesizer (GE Healthcare, Little Chalfont, UK) and commercially available ^18F-NaF cassettes (GE Healthcare)). Maximum radiotracer binding was determined by incubating CPP2s with ^18F-NaF (1 nM) only. The reaction was terminated by rapid filtration through a SOLAμ™ SPE plate (HRP 2 mg/mL 96-well plate, 22 μm; Thermo Fisher Scientific). SPE individual column matrices were washed twice rapidly in assay buffer and radioactivity on the filters determined by an automatic gamma counter (Wizard2 Gamma Counter, Perkin Elmer, Waltham, MA, USA). […] IC50 is the concentration of […] that gives a response half way between the bottom and top parts of the curve. ^18F-NaF micro-PET/computed tomography (micro-PET/CT) was employed for ex vivo analysis of (OEG2)2-IP4’s engagement to target calcified human tissue explants, as described previously. […] Following incubations, samples were washed twice in 0.1 M PBS (1 min per wash) and mounted on a Petri dish for micro-PET/CT imaging (nanoPET/CT, Mediso, Budapest, Hungary). In total, seven samples from the femoral arteries of three patients with ischemic peripheral disease and three samples from native aortic valves of three patients undergoing valve replacement surgery were used. All samples were collected at the time of surgery and stored in 4% paraformaldehyde at RT until further use. All patients gave their written, informed consent. All procedures had local ethical approval (06/S0703/110, 12/WS/0227, 09/S0703/118, and 12/NW/0036). All studies were approved by East and West Scotland Research Ethics Committees, and all experiments were conducted according to the principles expressed in the Declaration of Helsinki.

[1] = Macrophage viability (MTS) with CPP2 and compounds; type: cell-based, human; conditions: human, THP-1-derived macrophages, read-out: Macrophage viability (MTS), % of medium control; for viability at 24 h, 3 µM: 3 µM + CPP2, replicates Fig. 3i; for viability at 24 h, 10 µM: 10 µM + CPP2; for viability at 24 h, 30 µM: 30 µM + CPP2; for viability at 24 h, 100 µM: 100 µM + CPP2
Protocol: (§1) Macrophage accumulation and inflammation coincide with the initial phase of calcification. To this end, VSMCs and THP-1-derived macrophages were exposed to CPP2-supplemented medium. CPP2 prepared from human serum as described previously[61] (Supplementary Figs. 6 and 7), induced a pronounced VSMC monolayer calcification after 48 h, which was decreased by (OEG2)2-IP4 in a dose-dependent fashion, and the effect became significant at 10 µM (Fig. 3e). […] Both H2O2 (proxy for oxidative stress) and tumor necrosis factor-alpha (TNF-α) (proxy for inflammatory response) levels were assayed in the VSMC culture supernatants subsequent to CPP2 treatment with and without compounds[30]. However, no increase in H2O2 nor TNF-α compared to control could be detected in either assay. For the CPP-induced VSMC calcification assay (Fig. 3e) a roughly 10-fold higher concentration of (OEG2)2-IP4 was necessary to achieve similar activity as in the CaP-induced VSMC calcification assay (Fig. 3b). […] In the CaP assay, low inhibitor concentration may be sufficient to inhibit crystal nucleation, whereas for the CPP assay higher inhibitor concentrations may be needed to achieve sufficient particle stabilization by chemisorption of inhibitor onto CPPs. Similar results have been reported for hydrogen sulfide in the context of VC[62],[64]. […] An increase in the TNFα levels in the cell culture supernatants was not observed for (OEG2)2-IP4 with (Fig. 3h) and without (Supplementary Fig. 10) combined CPP2 treatment.
(§2) THP-1 cells were plated at a density of 200,000 cells/well in a 24-well plate, differentiated as stated above, and subsequently treated with or without CPP2 (50 μg Ca/mL) in complete medium with or without test compounds (3, 10, 30, 100 μM) for 24 h at 37 °C, 5% CO2.
(§3) Cell viability was assessed using the MTS assay (CellTiter 96® Aqueous One Solution Cell Proliferation Assay, G3580; Promega, Madison, WI, USA) according to the manufacturer’s instructions. Assays using combined treatment of CPPs or CaP and test compounds were performed in 24-well plates using 20,000 cells per well and assays using test compounds only were performed in a 96-well plate format with a seeding density of 10,000 (VSMC) or 50,000 (THP-1) cells per well, respectively. For controls, cells were treated with respective complete medium only and results were calculated as % of control.

[2] = system: THP-1-derived macrophages; test: Macrophage viability (MTS) with CPP2 and compounds; type: cell-based, human
Protocol: as §1, §2, §3

[3] = 3 µM + CPP2, replicates Fig. 3i, 3 µM

COCCOCCO[C@@H]1[C@@H](OP(=O)(O)O)[C@H](OCCOCCOC)[C@@H](OP(=O)(O)O)[C@@H](OP(=O)(O)O)[C@H]1OP(=O)(O)O [(OEG2)2-IP4, 4,6-Di-O-(methoxy-diethyleneglycol)-myo-inositol-1,2,3,5-tetrakis(phosphate)] gave an IC50 (CPP2) of 0.81 µM, an IC90 (CPP2; as assessed in Fig. 2c, read-out: IC90 (concentration inhibiting 90% 18F-NaF binding)) of 8.6 µM and an IC90 (CPP2; as used for tissue explants, read-out: IC90) of 8.55 µM. The “18F-NaF percentage binding to CPP2” value (CPP2; concentration 0.75 (unit not given), listed as INS-3001) was 105.464% and 94.9958% and 112.003%, the “18F-NaF percentage binding to CPP2” value (CPP2; concentration 2.5 (unit not given), listed as INS-3001) was 107.219% and 104.697% and 115.819% and the “18F-NaF percentage binding to CPP2” value (CPP2; concentration 7.5 (unit not given), listed as INS-3001) was 94.1661% and 101.068% and 121.959%. For the same molecule, the “18F-NaF percentage binding to CPP2” value (CPP2; concentration 25 (unit not given), listed as INS-3001) was 108.675% and 100.128% and 123.491%, the “18F-NaF percentage binding to CPP2” value (CPP2; concentration 75 (unit not given), listed as INS-3001) was 113.007% and 98.9202% and 111.871% and the “18F-NaF percentage binding to CPP2” value (CPP2; concentration 250 (unit not given), listed as INS-3001) was 85.5215% and 95.9196% and 111.875%. For the same molecule, the “18F-NaF percentage binding to CPP2” value (CPP2; concentration 750 (unit not given), listed as INS-3001) was 70.0481% and 89.1189% and 102.542%, the “18F-NaF percentage binding to CPP2” value (CPP2; concentration 1750 (unit not given), listed as INS-3001) was 31.7703% and 41.2562% and 38.4419% and the “18F-NaF percentage binding to CPP2” value (CPP2; concentration 7500 (unit not given), listed as INS-3001) was 12.1628% and 10.8683% and 17.508%. The “18F-NaF percentage binding to CPP2” value (CPP2; concentration 25000 (unit not given), listed as INS-3001) was 16.4031% and 18.0245% and 30.0027%, the “18F-NaF percentage binding to CPP2” value (CPP2; concentration 75000 (unit not given), listed as INS-3001) was 21.5957% and 22.2508% and 37.2218% and the “18F-NaF percentage binding to CPP2” value (CPP2; concentration 250000 (unit not given), listed as INS-3001) was 17.9597% and 19.9827% and 35.4457%. The “18F-NaF percentage binding to CPP2” value (CPP2; concentration 750000 (unit not given), replicates Fig. 2c, listed as INS-3001) was 28.6563% and 25.7698% and 36.7738%, the viability at 24 h, 3 µM [1] was 100% and the viability at 24 h, 10 µM [1] was 97.5%. For the same molecule, the viability at 24 h, 30 µM [1] was 96.5%, the viability at 24 h, 100 µM [1] was 99.1% and the “Macrophage viability (MTS), % of medium control” value (“Macrophage viability (MTS), %” below) [2, 3] was 98.1% and 100.05%. The “Macrophage viability (MTS), %” value ([2]; 10 µM + CPP2, 10 µM) was 99.92% and 100.59%, the “Macrophage viability (MTS), %” value ([2]; 30 µM + CPP2, 30 µM) was 96.73% and 98.39% and the “Macrophage viability (MTS), %” value ([2]; 100 µM + CPP2, 100 µM) was 94.54% and 99.09%.

In the case of O=P(O)(O)O[C@H]1[C@H](OP(=O)(O)O)[C@@H](OP(=O)(O)O)[C@H](OP(=O)(O)O)[C@@H](OP(=O)(O)O)[C@H]1OP(=O)(O)O [IP6, myo-Inositol hexakisphosphate], the IC50 (CPP2) is reported as 3.96 µM, the “18F-NaF percentage binding to CPP2” value (CPP2; concentration 0.75 (unit not given)) is reported as 94.1339% and 121.154% and 102.128% and the “18F-NaF percentage binding to CPP2” value (CPP2; concentration 2.5 (unit not given)) is reported as 93.0288% and 114.326% and 101.486%. The “18F-NaF percentage binding to CPP2” value (CPP2; concentration 7.5 (unit not given)) was 92.4582% and 110.79% and 97.129%, the “18F-NaF percentage binding to CPP2” value (CPP2; concentration 25 (unit not given)) was 95.6995% and 114.564% and 112.333% and the “18F-NaF percentage binding to CPP2” value (CPP2; concentration 75 (unit not given)) was 85.0945% and 107.18% and 113.212%. For the same molecule, the “18F-NaF percentage binding to CPP2” value (CPP2; concentration 250 (unit not given)) was 87.0585% and 108.409% and 103.034%, the “18F-NaF percentage binding to CPP2” value (CPP2; concentration 750 (unit not given)) was 87.2718% and 107.684% and 96.5293% and the “18F-NaF percentage binding to CPP2” value (CPP2; concentration 1750 (unit not given)) was 100.593% and 62.29% and 66.5713%. For the same molecule, the “18F-NaF percentage binding to CPP2” value (CPP2; concentration 2500 (unit not given)) was 85.021% and 85.5383% and 72.51%, the “18F-NaF percentage binding to CPP2” value (CPP2; concentration 7500 (unit not given)) was 76.4111% and 59.8209% and 66.7993% and the “18F-NaF percentage binding to CPP2” value (CPP2; concentration 25000 (unit not given)) was 66.3738% and 68.2115% and 51.6692%. For the same molecule, the “18F-NaF percentage binding to CPP2” value (CPP2; concentration 75000 (unit not given)) was 48.1457% and 55.4993% and 51.2901%, the “18F-NaF percentage binding to CPP2” value (CPP2; concentration 250000 (unit not given)) was 52.9543% and 43.7782% and 27.6001% and the “18F-NaF percentage binding to CPP2” value (CPP2; concentration 750000 (unit not given), replicates Fig. 2c) was 50.6666% and 38.054% and 33.4917%. It also gave a viability at 24 h, 3 µM [1] of 100%, a viability at 24 h, 10 µM [1] of 98% and a viability at 24 h, 30 µM [1] of 95.5%. For the same molecule, the viability at 24 h, 100 µM [1] was 69.2%, the “Macrophage viability (MTS), %” value [2, 3] was 102.11% and 100.63% and the “Macrophage viability (MTS), %” value ([2]; 10 µM + CPP2, 10 µM) was 99.19%. The “Macrophage viability (MTS), %” value ([2]; 30 µM + CPP2, 30 µM) was 96.22% and 102.8%, the “reduction of macrophage viability” value ([2]; 100 µM + CPP2) was 24% and the “Macrophage viability (MTS), %” value ([2]; 100 µM + CPP2, 100 µM) was 79.04% and 78.68%.
